# Read-outs that look alike come from different tables or passages of the source.
# How the values were obtained:
# [1] = target: T1, TAO2 (Homo sapiens, UniProt Q9UL54); assay: Probe-based (AX9989) kinase profiling in Jurkat lysate: TAO2; type: binding
# T1 construct: screened for activity against several kinases in Jurkat cells; endogenous in cells; host or cells: Jurkat cell lysate
# T1 sequence (Q9UL54 1-1235): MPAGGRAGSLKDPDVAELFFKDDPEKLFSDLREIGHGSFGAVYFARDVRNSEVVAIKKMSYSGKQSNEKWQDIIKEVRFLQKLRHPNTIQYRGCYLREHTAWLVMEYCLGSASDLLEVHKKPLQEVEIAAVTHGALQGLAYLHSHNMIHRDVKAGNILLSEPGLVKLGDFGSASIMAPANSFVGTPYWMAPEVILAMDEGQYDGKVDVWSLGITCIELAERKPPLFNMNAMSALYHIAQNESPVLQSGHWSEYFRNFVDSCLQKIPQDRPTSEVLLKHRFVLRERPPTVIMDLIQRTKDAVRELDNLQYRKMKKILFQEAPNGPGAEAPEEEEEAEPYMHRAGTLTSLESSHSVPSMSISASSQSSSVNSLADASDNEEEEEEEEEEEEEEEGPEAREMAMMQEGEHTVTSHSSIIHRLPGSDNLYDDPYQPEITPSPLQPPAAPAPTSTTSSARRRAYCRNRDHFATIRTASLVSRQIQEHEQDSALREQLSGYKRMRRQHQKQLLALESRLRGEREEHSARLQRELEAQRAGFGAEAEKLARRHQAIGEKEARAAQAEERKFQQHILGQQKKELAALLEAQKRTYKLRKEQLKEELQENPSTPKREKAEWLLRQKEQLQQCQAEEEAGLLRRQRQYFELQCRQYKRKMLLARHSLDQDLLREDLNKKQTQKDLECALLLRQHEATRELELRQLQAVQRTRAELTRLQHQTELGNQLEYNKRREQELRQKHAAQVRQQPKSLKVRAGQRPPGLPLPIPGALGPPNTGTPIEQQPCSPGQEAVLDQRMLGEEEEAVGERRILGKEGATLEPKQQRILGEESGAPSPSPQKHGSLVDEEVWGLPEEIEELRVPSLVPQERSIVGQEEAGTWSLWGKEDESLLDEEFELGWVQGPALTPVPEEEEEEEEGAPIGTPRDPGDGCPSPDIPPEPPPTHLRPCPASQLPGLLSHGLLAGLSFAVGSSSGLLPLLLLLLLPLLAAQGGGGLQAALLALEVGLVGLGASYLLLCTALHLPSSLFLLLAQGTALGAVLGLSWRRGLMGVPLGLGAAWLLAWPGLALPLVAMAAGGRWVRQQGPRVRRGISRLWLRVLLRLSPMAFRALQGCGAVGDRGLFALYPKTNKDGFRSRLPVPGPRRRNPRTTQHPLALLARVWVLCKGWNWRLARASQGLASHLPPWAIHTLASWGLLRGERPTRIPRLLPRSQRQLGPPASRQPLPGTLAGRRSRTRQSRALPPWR
# Summary of the method: (§1)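 Jurkat lysate (50 mM HEPES pH 7.5, 150 mM NaCl, 0.1% Triton X-100, 20 mM MnCl2) pre-incubated 15 min with compound at room temperature, then labeled with 5 μM acyl phosphate ATP probe AX9989. Tryptic probe-labeled peptides streptavidin-captured and quantified by LC/MS; percent inhibition from decreased fragment intensity versus untreated.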
# [2] = target: T2, ACK (Homo sapiens, UniProt Q07912); assay: Probe-based (AX9989) kinase profiling in Jurkat lysate: ACK; type: binding
# T2 construct: screened for activity against several kinases in Jurkat cells; endogenous in cells; host or cells: Jurkat cell lysate
# T2 sequence (Q07912 whole entry): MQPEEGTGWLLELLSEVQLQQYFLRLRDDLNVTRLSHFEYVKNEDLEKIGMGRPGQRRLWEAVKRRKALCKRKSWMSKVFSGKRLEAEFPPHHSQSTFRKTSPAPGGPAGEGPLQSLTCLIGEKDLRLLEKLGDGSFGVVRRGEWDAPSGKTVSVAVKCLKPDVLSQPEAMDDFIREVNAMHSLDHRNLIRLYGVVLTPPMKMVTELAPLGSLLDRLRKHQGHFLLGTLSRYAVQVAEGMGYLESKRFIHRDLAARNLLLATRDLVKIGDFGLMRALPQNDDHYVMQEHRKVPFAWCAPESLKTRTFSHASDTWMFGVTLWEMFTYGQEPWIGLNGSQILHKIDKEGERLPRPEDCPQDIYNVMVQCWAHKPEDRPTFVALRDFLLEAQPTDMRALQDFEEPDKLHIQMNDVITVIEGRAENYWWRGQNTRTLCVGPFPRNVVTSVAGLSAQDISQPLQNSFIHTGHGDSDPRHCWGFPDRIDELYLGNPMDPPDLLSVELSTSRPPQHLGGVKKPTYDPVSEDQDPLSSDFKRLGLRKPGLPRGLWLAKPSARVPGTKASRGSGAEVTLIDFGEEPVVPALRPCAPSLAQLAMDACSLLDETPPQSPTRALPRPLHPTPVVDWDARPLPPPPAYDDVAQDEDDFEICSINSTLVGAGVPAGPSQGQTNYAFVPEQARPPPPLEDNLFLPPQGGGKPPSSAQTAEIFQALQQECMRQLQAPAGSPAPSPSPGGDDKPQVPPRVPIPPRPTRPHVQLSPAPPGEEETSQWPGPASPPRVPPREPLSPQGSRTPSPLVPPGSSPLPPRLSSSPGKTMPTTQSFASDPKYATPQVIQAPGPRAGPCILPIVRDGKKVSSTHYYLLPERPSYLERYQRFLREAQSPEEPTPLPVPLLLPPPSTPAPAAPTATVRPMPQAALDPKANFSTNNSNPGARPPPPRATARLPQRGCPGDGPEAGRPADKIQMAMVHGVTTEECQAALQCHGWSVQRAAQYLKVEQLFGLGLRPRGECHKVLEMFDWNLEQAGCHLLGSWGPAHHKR
# Summary of the method: as §1
# [3] = target: T3, ERK5 (Homo sapiens, UniProt Q13164); assay: Probe-based (AX9989 acyl phosphate ATP probe) kinase profiling in Jurkat lysate: ERK5; type: binding; conditions: for IC50: Jurkat lysate
# T3 construct: screened for activity against several kinases in Jurkat cells; endogenous in cells; host or cells: Jurkat cell lysate
# T3 sequence (Q13164 whole entry): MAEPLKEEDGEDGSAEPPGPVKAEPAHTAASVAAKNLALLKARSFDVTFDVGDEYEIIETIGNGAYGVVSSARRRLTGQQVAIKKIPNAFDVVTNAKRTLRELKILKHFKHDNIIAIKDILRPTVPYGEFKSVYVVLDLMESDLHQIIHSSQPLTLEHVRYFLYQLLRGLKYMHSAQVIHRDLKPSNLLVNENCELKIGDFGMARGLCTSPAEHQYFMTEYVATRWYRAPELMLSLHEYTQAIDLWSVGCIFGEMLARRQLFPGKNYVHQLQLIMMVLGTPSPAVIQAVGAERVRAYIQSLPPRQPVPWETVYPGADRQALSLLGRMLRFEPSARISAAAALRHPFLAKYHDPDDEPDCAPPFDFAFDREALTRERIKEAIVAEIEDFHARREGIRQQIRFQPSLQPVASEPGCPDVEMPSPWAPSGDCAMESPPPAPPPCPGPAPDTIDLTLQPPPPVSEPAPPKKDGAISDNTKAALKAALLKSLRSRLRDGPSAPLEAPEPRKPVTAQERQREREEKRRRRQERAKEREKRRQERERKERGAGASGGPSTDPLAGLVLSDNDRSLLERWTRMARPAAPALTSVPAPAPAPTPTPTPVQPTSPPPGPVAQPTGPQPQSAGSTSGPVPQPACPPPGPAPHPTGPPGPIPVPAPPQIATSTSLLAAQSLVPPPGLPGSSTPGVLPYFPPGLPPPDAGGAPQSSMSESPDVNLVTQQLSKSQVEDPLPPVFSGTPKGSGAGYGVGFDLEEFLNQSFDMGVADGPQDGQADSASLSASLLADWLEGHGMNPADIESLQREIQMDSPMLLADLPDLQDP
# Summary of the method: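 ERK5 IC50 values came from percent inhibition at the screening concentration, measured as loss of LC/MS signal of probe-labelled active-site peptides. Compound was added for 15 min at room temperature to Jurkat lysate (5 mg/ml, 20 mM MnCl2) before labelling with AX9989 ATP acyl phosphate probe at 5 μM.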
# [4] = system: ABL or ARG; assay: Probe-based (AX9989) kinase profiling in Jurkat lysate: ABL or ARG; type: binding; conditions: for ABL or ARG Inhibition % at indicated screening concentration: screening concentration 1 μM; for Kinase inhibition % at indicated screening concentration: ABL or ARG: screening concentration 1.0 μM
# Summary of the method: as §1
# [5] = system: human PBMCs; assay: Human PBMC TNF-α response to endotoxin (ELISA); type: cell-based; conditions: 0.1 μg/ml LPS 16 h, read-out: EC50 for the inhibition of the human PBMC TNF-α response to endotoxin, ave. ± S.D.
# Summary of the method: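 PBMCs at 2e6 cells/ml in RPMI 1640 with 10% charcoal-dextran-treated FBS were pre-treated 1 h at 37 °C with compound (4-point 1:5 dilution from 10 μM). Stimulation with 0.1 μg/ml E. coli 0111:B4 LPS for 16 h; TNF-α measured by ELISA (A450) in 25-fold diluted supernatant.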
# [6] = screening concentration 1 μM, read-out: TAO2 Inhibition % at indicated screening concentration
# [7] = screening concentration 1 μM, read-out: ACK Inhibition % at indicated screening concentration
# [8] = calculated from percent inhibition and screening concentration, AX9989 probe
# [9] = screening concentration 1 μM, read-out: ERK5 Inhibition % at indicated screening concentration
# [10] = screening concentration 1.0 μM, read-out: Kinase inhibition % at indicated screening concentration: TAO2
# [11] = screening concentration 1.0 μM, read-out: Kinase inhibition % at indicated screening concentration: ACK
# [12] = calculated from percent inhibition of AX9989 labeling and the screening concentration
# [13] = screening concentration 1.0 μM, read-out: Kinase inhibition % at indicated screening concentration: ERK5
Structure (SMILES),"inhibition at 1 µM [1, 6]","inhibition at 1 µM [2, 7]","IC50 [3, 8]","inhibition at 1 µM [3, 9]",ABL or ARG Inhibition % at indicated screening concentration [4],"inhibition at 1 µM [1, 10]","inhibition at 1 µM [2, 11]","IC50 [3, 12]","inhibition at 1 µM [3, 13]",Kinase inhibition % at indicated screening concentration: ABL or ARG [4],EC50 [5]
CN1C(=O)c2ccccc2N(C)c2cc(N[C@H]3CC[C@H](N4CCCC4)CC3)ncc21 [Compound 74],,,,,,≤ 35%,≤ 35%,101 to 500 nM,50 to 75%,E (E is ≦35%),4960 nM
CCOc1cc(C(=O)N[C@@H]2CCCOC2)ccc1Nc1cc2c(cn1)N(C)C(=O)c1ccccc1N2C [Compound 69],,,,,,≤ 35%,≤ 35%,101 to 500 nM,50 to 75%,E (E is ≦35%),1070 nM

# More lines, main results first:
"inhibition at 1 µM [1, 6]","inhibition at 1 µM [2, 7]","IC50 [3, 8]","inhibition at 1 µM [3, 9]",ABL or ARG Inhibition % at indicated screening concentration [4],"inhibition at 1 µM [1, 10]","inhibition at 1 µM [2, 11]","IC50 [3, 12]","inhibition at 1 µM [3, 13]",Kinase inhibition % at indicated screening concentration: ABL or ARG [4],Structure (SMILES),EC50 [5]
≤ 35%,≤ 35%,≤ 50 nM,> 90%,E (E is ≦35%),,,,,,CN1CCC(N2CCN(C(=O)c3ccc(Nc4cc5c(cn4)N(C)C(=O)c4ccccc4N5C)c(OC(F)F)c3)CC2)CC1 [Compound T76],1110 nM
≤ 35%,≤ 35%,≤ 50 nM,> 90%,E (E is ≦35%),,,,,,CCOc1cc(C(=O)N2CCC(N3CC[C@H](O)C3)CC2)ccc1Nc1cc2c(cn1)N(C)C(=O)c1ccccc1N2C [Compound T11],620 nM
≤ 35%,≤ 35%,≤ 50 nM,> 90%,E (E is ≦35%),,,,,,CN1CCN(C2CCN(C(=O)c3ccc(Nc4cc5c(cn4)N(C)C(=O)c4ccccc4N5C)c(OCCF)c3)CC2)CC1 [Compound T34],490 ± 40 nM

# Reference: patent US20170008888A1 (KYORIN PHARMACEUTICAL CO., LTD., priority 2014, published 2017)
